The subject of series [1] is human MCF-7 cells. As to the kind of experiment: MCF-7 breast cancer xenograft model. The format is in vivo, female nude mice (NMRI nu/nu). The conditions noted are these: for T/C (based on tumour area) / T/C (based on tumour weight): 30 days, once per day. How it is done:
Xenograft models in immunosuppressed mice were used to determine the antitumour activity in living organisms.
Various xenograft models in which the test substances were administered in their MTD and in lower doses were then used to determine the antitumour activity. In addition to various other models, use was made primarily of the breast cancer model with hormone-dependent human MCF-7 cells in female nude mice (NMRI-nude (nu/nu) mice, Taconic M&B A/S). To this end, on the day prior to the implantation of the tumour cells, a pellet for releasing oestrogen (17β-oestradiol 0.36 mg, release over 60 days) was administered subcutaneously to the mice. The next day, 2 million tumour cells (suspended in medium+Matrigel) 1:1, final 0.1 ml) were then injected subcutaneously into the side of each animal. When the tumours extended to an area of 20-25 mm^2, the mice were randomized into therapy groups and therapy was initiated. The therapy was then continued until an average tumour size of 120 mm^2 had been reached in the control group, which had only been given the vehicle of the test substance, or in one of the treatment groups, with tumour area and body weight being measured 2-3 times per week. At this point in time, the experiment was terminated in all groups and the excised tumours were weighed.
The T/C value was calculated as primary success parameter either using the effect on the tumour weight or using the effect on the tumour area: mean tumour weight/area in the treatment group divided by mean of the tumour weight/area in the vehicle group.
Comparative Example C.1 was subsequently administered to female nude mice (NMRI nu/nu) in the MCF-7 breast cancer xenograft model: • Dose: 7.5 mg/kg • Mode of administration: oral • Vehicle: PEG400/ethanol/Solutol HS 15(70/5/25, v/v/v) • Administration volume: 10 ml/kg • Scheme: 27 days, 2 times per day (2 qd) • Mice: 10
Compound A was subsequently administered to female nude mice (NMRI nu/nu) in the MCF-7 breast cancer xenograft model: • Dose: see Tab. 5 • Mode of administration: oral • Vehicle: PEG400/ethanol/Solutol HS 15(70/5/25, v/v/v) • Administration volume: 10 ml/kg • Scheme: 30 days, once per day (qd) • Mice per dose group: 10-13
For the statistical evaluation of the experiment, the non-parametric ANOVA test was used for the T/C values based on the tumour area, since there was no normal distribution of the measured values. All therapy groups were then compared to the vehicle group using Dunns Post test. The resulting p values are shown in the table (ns: not significant=p>0.05). Since there was a normal distribution of the T/C values based on tumour weight, the ANOVA test for parametric values was used for analysis. All therapy groups were then compared to the vehicle group using the Bonferroni Post test.

Series [2] in a line: Maximum tolerated dose (MTD) determination, oral. The format is in vivo, female nude mice (NMRI nu/nu). Particulars: for MTD at 21 days: 21-day treatment with 1 administration per day. On the procedure:
To this end, initially the maximum tolerable dose (MTD) was determined using the following protocol:
Over a period of 1, 2 or 3 weeks, a defined dose of the test substance was administered orally to female nude mice (NMRI-nude (nu/nu) mice, Taconic M&B A/S), and the mice were observed daily for mortality and body weight. The MTD was defined as the highest dose which could be administered without any animal dying during the treatment phase and the 7-day additional observation phase, and without any body weight loss of more than 10% compared to the initial weight.
Comparative Example C.1 was administered to female nude mice (NMRI nu/nu): • Dose: see Tab. 3 • Mode of administration: oral • Vehicle: PEG400/ethanol/Solutol HS 15(70/5/25, v/v/v) • (Solutol HS15: polyoxyethylene ester of 12-hydroxystearic acid) • Administration volume: 10 ml/kg • Scheme: see Tab. 3
The treatment phase was followed by an observation phase of 7 days.
Compound A was administered to female nude mice (NMRI nu/nu): • Dose: see Tab. 4 • Mode of administration: oral • Vehicle: PEG400/ethanol/Solutol HS 15(70/5/25, v/v/v) • Administration volume: 10 ml/kg • Scheme: see Tab. 4

Series [3] has as its target T1, ACC2 (Homo sapiens (Human), UniProt O00763). As to the kind of experiment: Human ACC2 enzyme assay B2 (ADP-Glo). The format is biochemical. Particulars: read-out: ACC 2 (=B2) IC50.
Target sequence in this assay (O00763 27-2458 limits assumed): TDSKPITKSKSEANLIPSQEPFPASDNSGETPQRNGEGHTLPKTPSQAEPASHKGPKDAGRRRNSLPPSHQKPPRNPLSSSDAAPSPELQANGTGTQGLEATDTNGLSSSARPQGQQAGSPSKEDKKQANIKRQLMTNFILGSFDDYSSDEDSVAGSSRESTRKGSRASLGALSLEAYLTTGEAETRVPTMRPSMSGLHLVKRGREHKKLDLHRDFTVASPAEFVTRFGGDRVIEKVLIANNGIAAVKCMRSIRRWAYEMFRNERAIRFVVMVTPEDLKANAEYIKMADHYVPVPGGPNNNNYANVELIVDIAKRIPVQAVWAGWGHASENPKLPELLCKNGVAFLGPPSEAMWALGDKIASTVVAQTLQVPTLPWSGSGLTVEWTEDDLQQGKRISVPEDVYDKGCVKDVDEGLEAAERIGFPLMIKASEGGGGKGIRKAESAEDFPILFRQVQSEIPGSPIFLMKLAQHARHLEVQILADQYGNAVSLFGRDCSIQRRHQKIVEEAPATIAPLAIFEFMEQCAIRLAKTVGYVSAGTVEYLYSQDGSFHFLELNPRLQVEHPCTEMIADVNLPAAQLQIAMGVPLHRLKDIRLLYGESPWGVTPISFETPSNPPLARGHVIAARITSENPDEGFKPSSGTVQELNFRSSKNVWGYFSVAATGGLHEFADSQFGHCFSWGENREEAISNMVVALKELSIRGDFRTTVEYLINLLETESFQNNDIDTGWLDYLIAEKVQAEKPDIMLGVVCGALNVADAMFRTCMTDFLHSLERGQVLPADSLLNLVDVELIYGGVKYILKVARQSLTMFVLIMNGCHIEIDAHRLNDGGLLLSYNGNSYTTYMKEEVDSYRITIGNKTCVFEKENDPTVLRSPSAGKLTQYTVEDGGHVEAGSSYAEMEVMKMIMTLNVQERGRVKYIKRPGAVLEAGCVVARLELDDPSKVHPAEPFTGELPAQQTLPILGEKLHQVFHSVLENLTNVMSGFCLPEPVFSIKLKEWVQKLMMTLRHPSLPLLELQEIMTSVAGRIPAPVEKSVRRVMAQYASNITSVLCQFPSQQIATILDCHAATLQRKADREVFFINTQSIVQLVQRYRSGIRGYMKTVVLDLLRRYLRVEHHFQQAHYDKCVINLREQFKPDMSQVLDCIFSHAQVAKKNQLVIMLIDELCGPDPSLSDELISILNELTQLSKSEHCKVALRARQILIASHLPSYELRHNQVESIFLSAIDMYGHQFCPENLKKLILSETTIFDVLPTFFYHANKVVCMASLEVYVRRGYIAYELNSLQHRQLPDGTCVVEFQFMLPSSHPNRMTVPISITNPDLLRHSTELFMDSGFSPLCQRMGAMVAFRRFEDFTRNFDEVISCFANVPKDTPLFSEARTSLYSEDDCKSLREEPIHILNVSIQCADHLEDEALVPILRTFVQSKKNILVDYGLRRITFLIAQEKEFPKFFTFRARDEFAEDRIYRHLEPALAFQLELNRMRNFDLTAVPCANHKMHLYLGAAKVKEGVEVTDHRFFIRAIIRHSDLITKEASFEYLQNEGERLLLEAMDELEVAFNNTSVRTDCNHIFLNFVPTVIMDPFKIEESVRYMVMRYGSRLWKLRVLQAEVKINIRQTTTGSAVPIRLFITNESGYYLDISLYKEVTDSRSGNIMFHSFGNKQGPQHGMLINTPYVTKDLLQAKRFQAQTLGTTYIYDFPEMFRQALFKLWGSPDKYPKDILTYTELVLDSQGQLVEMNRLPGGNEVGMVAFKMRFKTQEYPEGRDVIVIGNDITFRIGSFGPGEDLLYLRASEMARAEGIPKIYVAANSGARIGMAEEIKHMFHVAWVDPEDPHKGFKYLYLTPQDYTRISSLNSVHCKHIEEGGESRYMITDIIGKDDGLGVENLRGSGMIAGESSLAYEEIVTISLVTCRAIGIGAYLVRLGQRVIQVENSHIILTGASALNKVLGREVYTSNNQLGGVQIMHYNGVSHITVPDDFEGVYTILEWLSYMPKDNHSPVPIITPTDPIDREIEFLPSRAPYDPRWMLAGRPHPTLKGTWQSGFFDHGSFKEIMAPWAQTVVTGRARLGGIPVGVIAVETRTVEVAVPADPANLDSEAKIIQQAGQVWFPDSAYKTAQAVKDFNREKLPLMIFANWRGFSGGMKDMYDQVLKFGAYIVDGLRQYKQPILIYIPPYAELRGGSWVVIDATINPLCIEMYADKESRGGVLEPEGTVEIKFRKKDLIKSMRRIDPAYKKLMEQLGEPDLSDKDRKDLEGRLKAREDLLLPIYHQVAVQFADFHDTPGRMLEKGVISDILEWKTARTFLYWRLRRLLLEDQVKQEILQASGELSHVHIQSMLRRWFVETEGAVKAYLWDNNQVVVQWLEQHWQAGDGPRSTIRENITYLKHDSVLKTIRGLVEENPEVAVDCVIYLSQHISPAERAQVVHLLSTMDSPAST
Procedure: Essentially, the enzyme activity is measured by quantifying the adenosine diphosphate (ADP) formed as a byproduct of the enzyme reactions using the ADP-Glo™ detection system from Promega. In this test, initially the adenosine triphosphate (ATP) not consumed in the enzyme reaction is converted quantitatively with an adenylate cyclase (“ADP-GLO reagent”) into cAMP, the adenylate cyclase is then stopped and (“kinase detection reagent”) the ADP formed is subsequently converted into ATP, which is converted in a luciferase-based reaction into a glow luminescence signal.
Typical concentrations were in the range of 2 ng/μl. […] The amount of light emitted was taken as a measure for the amount of ADP formed and thus for the enzyme activity of the hACC2.
Series [4] has as its target T1, ACC2. Briefly: Human ACC2 enzyme assay A2 (HTRF ADP immunoassay). The format is biochemical. The conditions noted are these: read-out: ACC 2 (=A2) IC50. From the text: The ACC2 inhibition data were obtained using two different assays (A2 and B2)
In general terms: Time-resolved FRET reads energy transfer from a long-lived donor to a nearby acceptor.
Target sequence in this assay (O00763 39-2458 limits assumed): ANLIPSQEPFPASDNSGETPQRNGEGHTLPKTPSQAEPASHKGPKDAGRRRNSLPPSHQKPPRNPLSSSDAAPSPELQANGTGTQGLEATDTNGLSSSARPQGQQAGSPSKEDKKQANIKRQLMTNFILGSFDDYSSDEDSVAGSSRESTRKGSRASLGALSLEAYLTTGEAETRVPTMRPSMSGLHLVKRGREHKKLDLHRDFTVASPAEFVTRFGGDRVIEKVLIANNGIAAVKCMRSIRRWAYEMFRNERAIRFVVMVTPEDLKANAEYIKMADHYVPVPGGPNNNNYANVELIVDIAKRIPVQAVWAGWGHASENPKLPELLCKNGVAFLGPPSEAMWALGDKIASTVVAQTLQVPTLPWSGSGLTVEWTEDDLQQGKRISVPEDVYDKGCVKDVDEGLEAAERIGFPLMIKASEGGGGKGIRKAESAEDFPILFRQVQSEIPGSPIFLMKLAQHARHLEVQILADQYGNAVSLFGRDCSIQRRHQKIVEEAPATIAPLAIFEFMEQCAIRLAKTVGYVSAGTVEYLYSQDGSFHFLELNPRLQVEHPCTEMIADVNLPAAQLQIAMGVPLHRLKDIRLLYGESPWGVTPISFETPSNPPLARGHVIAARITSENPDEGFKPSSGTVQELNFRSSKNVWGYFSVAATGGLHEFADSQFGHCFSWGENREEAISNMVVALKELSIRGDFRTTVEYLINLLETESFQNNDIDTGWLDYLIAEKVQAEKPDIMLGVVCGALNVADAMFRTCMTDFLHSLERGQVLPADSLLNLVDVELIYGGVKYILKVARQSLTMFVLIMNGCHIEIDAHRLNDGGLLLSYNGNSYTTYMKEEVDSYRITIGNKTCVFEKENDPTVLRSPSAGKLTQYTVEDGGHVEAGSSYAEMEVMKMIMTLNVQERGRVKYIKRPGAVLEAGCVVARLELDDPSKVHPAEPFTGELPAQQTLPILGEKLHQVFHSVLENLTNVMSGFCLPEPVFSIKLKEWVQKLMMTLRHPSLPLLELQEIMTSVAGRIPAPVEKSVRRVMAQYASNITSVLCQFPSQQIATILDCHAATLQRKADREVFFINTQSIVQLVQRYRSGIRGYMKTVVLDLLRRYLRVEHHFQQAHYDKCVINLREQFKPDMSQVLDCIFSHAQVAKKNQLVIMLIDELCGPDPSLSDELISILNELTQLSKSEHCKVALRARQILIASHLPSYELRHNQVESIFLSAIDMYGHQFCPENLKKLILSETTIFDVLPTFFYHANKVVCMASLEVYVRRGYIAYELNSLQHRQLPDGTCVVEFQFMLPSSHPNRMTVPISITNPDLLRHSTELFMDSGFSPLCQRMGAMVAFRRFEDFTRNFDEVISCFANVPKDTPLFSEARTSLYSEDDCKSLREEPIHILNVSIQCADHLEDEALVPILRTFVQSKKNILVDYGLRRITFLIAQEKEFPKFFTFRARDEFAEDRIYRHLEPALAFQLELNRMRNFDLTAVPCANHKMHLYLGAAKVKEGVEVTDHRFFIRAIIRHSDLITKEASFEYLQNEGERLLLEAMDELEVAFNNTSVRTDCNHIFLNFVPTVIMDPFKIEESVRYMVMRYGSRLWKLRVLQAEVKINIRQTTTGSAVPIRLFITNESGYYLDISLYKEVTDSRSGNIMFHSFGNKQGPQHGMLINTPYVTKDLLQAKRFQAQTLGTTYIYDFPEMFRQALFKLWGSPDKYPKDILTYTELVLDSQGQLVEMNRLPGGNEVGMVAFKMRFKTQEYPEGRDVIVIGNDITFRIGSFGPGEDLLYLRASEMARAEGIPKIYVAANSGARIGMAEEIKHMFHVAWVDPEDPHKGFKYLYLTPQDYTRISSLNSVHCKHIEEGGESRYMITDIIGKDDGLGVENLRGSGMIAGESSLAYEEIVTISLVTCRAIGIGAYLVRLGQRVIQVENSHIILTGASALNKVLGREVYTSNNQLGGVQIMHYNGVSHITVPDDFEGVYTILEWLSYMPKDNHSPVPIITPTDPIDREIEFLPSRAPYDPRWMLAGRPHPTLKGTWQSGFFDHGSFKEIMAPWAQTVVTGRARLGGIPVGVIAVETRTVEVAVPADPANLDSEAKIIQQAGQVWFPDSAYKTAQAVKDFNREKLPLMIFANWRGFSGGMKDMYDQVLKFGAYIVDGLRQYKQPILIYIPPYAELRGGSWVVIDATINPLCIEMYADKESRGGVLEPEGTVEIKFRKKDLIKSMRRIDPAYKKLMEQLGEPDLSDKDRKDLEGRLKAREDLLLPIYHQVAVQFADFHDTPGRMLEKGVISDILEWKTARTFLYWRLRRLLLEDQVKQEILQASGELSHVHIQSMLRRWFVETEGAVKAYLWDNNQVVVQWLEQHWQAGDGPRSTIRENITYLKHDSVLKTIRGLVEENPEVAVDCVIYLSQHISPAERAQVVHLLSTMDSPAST

Series [5] relates to DAN-G. Briefly: Cell assay, tumour cell proliferation (CellTiter-Glo, 96 h). The format is cell-based. The conditions noted are these: 96-hour incubation. How it is done:
(§1) In accordance with the invention, the substances were tested in cell-based assays for the ability of the substances of inhibiting tumour cell proliferation after a 96-hour incubation with the substance. Cell viability was tested using the CellTiter-Glo® luminescent cell viability assay (Promega). The cells were sown at a density of 2000-5000 cells/well (depending on the cell line) in 100 μl growth medium on 96-well microtitre plates. For each cell line examined, cells were sown on a separate plate to determine the luminescence at t=0 hours and t=96 hours. After overnight incubation at 37° C., the luminescence values for the t=0 samples were determined. The dose plates for the t=96 hours points in time were treated with substances diluted with growth medium. The cells were then incubated at 37° C. for 96 hours, and the luminescence values for the t=96 hours sample were then determined/For data analysis, the t=0 values were subtracted from the t=96 hour values for treated and untreated samples. The differences in luminescence in percent between substance-treated samples and control values were used to determine the growth inhibition in percent.
(§2) The substances were tested in the following cell lines which represent the stated indications in an exemplary manner: […]
On the technique in general: ATP-based viability assays read luminescence as a measure of living cells.

The subject of series [6] is LNCaP. The description is as above. The format is cell-based. Particulars: Homo sapiens, 96-hour incubation. On the procedure:
as §1, §2

The test system of series [7] is SNU16. Described as above. The format is cell-based. The conditions noted are these: Homo sapiens, SNU-16; 96-hour incubation. How it is done:
as §1, §2

Series [8] deals with CAL-120. Described as above. The conditions noted are these: Homo sapiens, 96-hour incubation. The format is cell-based. How it is done: as §1, §2
Series [9] concerns H460. Described as above. The format is cell-based. Particulars: Homo sapiens, NCI-H460; 96-hour incubation. On the procedure:
as §1, §2

The test system of series [10] is BxPC3. Described as above. The format is cell-based. Particulars: Homo sapiens, BXPC-3; 96-hour incubation. How it is done:
as §1, §2

Series [11] relates to BT-20. The description is as above. The format is cell-based. Particulars: Homo sapiens, 96-hour incubation. How it is done:
as §1, §2

The mark [12] stands for this setting: 7.5 mg/kg oral 2 qd, up to day 37 of the experiment.

The structures appear in SMILES notation.

As usually defined, the MTD is the largest dose that counted as tolerated. Low values mean poorer tolerability, high ones better tolerability. The IC50 is the midpoint of a concentration-inhibition curve.

Turning to `CO[C@H]1CC[C@]2(CC1)NC(=O)C(c1cc(-c3ccc(Cl)cc3)ccc1C)=C2O` [Comparative Example C.1, (5s,8s)-3-(4′-chloro-4-methylbiphenyl-3-yl)-4-hydroxy-8-methoxy-1-azaspiro[4.5]dec-3-en-2-one], the animals died in series [1] (setting [12]) is on record as 1 of 10. The bodyweight loss entry in series [1] (setting [12]) is “low bodyweight loss”. The “T/C value based on tumour area” value in series [1] (7.5 mg/kg oral, 27 days, 2 times per day (2 qd)) amounted to 0.86. Also, the Deaths is listed as 1 of 4 in series [1] (continued with 10 mg/kg 2 qd up to day 43); 4 of 5 in series [1] (continued with 12.5 mg/kg 2 qd up to day 43); 1 of 3 in [2] (10 mg/kg oral, 14 days, 2 times a day); 1 of 5 in series [2] (15 mg/kg oral, 21 days, once per day (Table 3)); 2 of 3 in series [2] (20 mg/kg oral, 14 days, 2 times a day); 1 of 5 in series [2] (20 mg/kg oral, 21 days, once per day (Table 3)). Besides, the Deaths in series [2] (25 mg/kg oral, 21 days, once per day (Table 3)) was 1 of 5; in series [2] (30 mg/kg oral, 14 days, 2 times a day), 2 of 3. The same molecule showed an MTD at 14 days in series [2] (female, NMRI nu/nu, mouse, in vivo, po, 14-day treatment with 2 administrations per day) of less than 10 mg/kg. In [2] (female, NMRI nu/nu, mouse, in vivo, po), the MTD at 21 days is less than 15 mg/kg.
As to `COC1CCC2(C=C(c3cc(-c4ccc(Cl)c(Cl)c4)ccc3C)C(=O)N2)CC1` (stereo not shown) [Comparative Example C.2], the IC50 in series [3] was 2610 nM; in series [4], 1410 nM.
Regarding `CO[C@H]1CC[C@]2(CC1)NC(=O)C(c1cc(-c3ccc(Cl)c(F)c3)ccc1C)=C2O` [Compound A, (5s,8s)-3-(4′-chloro-3′-fluoro-4-methylbiphenyl-3-yl)-4-hydroxy-8-methoxy-1-azaspiro[4.5]dec-3-en-2-one], the “T/C (based on tumour area)” value in series [1] (20 mg/kg oral) was 0.56 (ns); in series [1] (25 mg/kg oral), 0.51 (p < 0.05); in series [1] (30 mg/kg oral), 0.49 (p < 0.05); in series [1] (35 mg/kg oral), 0.44 (p < 0.05). The “T/C (based on tumour weight)” value is given as 0.42 (p = 0.003) in series [1] (20 mg/kg oral), 0.37 (p < 0.001) in [1] (25 mg/kg oral), 0.35 (p < 0.001) in series [1] (30 mg/kg oral) and 0.31 (p < 0.001) in series [1] (35 mg/kg oral). Moreover, the “antitumoral efficacy (in words)” value in [1] (MCF-7 xenograft, summary statement) is “biologically meaningful and significant antitumoral effects”. Besides, the IC50 in series [5] amounted to 184 nM; in [6] it was 334 nM; in series [7] it was 164 nM; in series [8] it was 266 nM; in series [9], 201 nM; in series [10], 165 nM. In [11], this molecule had an IC50 of 187 nM. For the same molecule, the Deaths in series [2] (20 mg/kg oral, 21 days, once per day (Table 4)) is given as 0 of 5; in series [2] (30 mg/kg oral, 21 days, once per day (Table 4)) it was 0 of 5; in series [2] (40 mg/kg oral, 21 days, once per day (Table 4)) it was 1 of 5; in series [2] (50 mg/kg oral, 21 days, once per day (Table 4)), 5 of 5; in [2] (60 mg/kg oral, 21 days, once per day (Table 4)), 5 of 5. In series [2] (female, NMRI nu/nu (nude), mouse, in vivo, po), this molecule had an MTD at 21 days of less than 40 mg/kg.

The record behind these values is patent US9212140B2, “(5s,8s)-3-(4′-chlor-3′-fluor-4-methlybiphenyl-3-yl)-4-hydroxy-8-methoxy-1-azaspiro[4.5] dec-3-en-2-one (compound A) for treatment” (Bayer Intellectual Property GmbH, priority 2011, dated 2015).
